Target: HK853 (Thermotoga maritima, UniProt Q9WZV7)
Test: STD-NMR
Type: binding

f STD ^a: 73.3
SMILES: Nc1ncnc2c1ncn2[C@@H]1O[C@H](COP(=O)(O)OP(=O)(O)O)[C@@H](O)[C@H]1O [ADP]

From paper PMC3546527 (MedChemComm, 2012)
